This experiment addresses T1, wildtype HIV-1 protease (Human immunodeficiency virus type 1 group M subtype B, UniProt P04585).
T1 construct: preincubated with the HIV-1 protease (wild type) enzyme in assay buffer; made in house; host or cells: Escherichia coli
In words: Inhibition of microbial expressed HIV protease (Pepcleav). Format: biochemical. Conditions: wild type HIV-1 protease expressed in E. coli, 20 pM enzyme, 400 micromolar peptide substrate, pH 5.5, LC-MS readout; mean of at least two independent experiments. As for the experimental part:
Assay for Inhibition of Microbial Expressed HIV Protease (“Pepcleav”)
Studies of the inhibition of the wildtype HIV-1 protease (which was expressed in Escherichia coli) were carried out with a peptide substrate [Val-Ser-Gln-Asn-(βnaphthyl)Ala-Pro-Ile-Val (SEQ ID NO:1)]. The inhibitor was first preincubated with the HIV-1 protease (wild type) enzyme in assay buffer (50 mM sodium acetate, pH 5.5, 100 mM NaCl, and 0.1% BSA) for 30 minutes at room temperature. Substrate was added to 400 micromolar in a total volume of 20 microliters containing 20 picomolar HIV-1 protease (final) and the reaction was incubated for 1 hour at 30° C. The reaction was quenched with the addition of formic acid and indinavir to 0.012% and 150 nM final concentrations, respectively. The product formation was determined after separation of product and substrate on a Zorbax Eclipse XDB-C18 column connected to an API 4000 mass spectrometer (Applied Biosystems) with multiple reaction monitoring (transitions were 644.5/428.9 and 615.4/422.2 (M1/M3) for product and indinavir respectively). The extent of inhibition of the reaction was determined from the peak area of the products. Analysis of the products, independently synthesized, provided quantitation standards and confirmation of the product composition.

SMILES strings stand for the structures.

As usually defined, the IC50 is the concentration at which inhibition is half-maximal. Read a high IC50 as a need for much substance.

On to `C[C@H]1O[C@H](CCc2c(F)cncc2NC(=O)[C@@H](N)C(c2ccc(F)cc2)c2ccc(F)cc2)CN[C@@H]1COC(=O)NCC(F)(F)F` [Example 45, 4-fluoro-N-(5-fluoro-4-{2-[(2R,5R,6R)-6-methyl-5-({[(2,2,2-trifluoroethyl)carbamoyl]oxy}methyl)morpholin-2-yl]ethyl}pyridin-3-yl)-β-(4-fluorophenyl)-L-phenylalaninamide], for which the IC50 turned out to be 24 nM.

`COC(=O)N[C@H](C(=O)Nc1ccccc1CC[C@@H]1CN[C@H](COC(=O)NCC(F)(F)F)[C@@H](CO)O1)C(c1ccccc1)c1ccccc1` [Example 46, N-(2-{2-[(2R,5R,6S)-6-(hydroxymethyl)-5-({[(2,2,2-trifluoroethyl)carbamoyl]oxy}methyl)morpholin-2-yl]ethyl}phenyl)-Nα-(methoxycarbonyl)-β-phenyl-L-phenylalaninamide]: it took 65 nM to reach half-maximal inhibition (IC50).

Compound `C[C@H]1O[C@H](CCc2c(F)cccc2NC(=O)[C@@H](N)C(c2ccc(F)cc2)c2ccc(F)cc2)CN[C@@H]1COC(=O)NCc1ccc(F)cc1` [Example 48, 4-fluoro-N-(3-fluoro-2-{2-[(2R,5R,6R)-5-({[(4-fluorobenzyl)carbamoyl]oxy}methyl)-6-methylmorpholin-2-yl]ethyl}phenyl)-β-(4-fluorophenyl)-L-phenylalaninamide] showed an IC50 of 5.8 nM.

As for `C[C@@H]1O[C@H](CCc2c(F)cccc2NC(=O)[C@@H](N)C(c2ccc(F)cc2)c2ccc(F)cc2)CN[C@@H]1CO` [Example 49, 4-fluoro-N-(3-fluoro-2-{2-[(2R,5R,6S)-5-(hydroxymethyl)-6-methylmorpholin-2-yl]ethyl}phenyl)-β-(4-fluorophenyl)-L-phenylalaninamide], the IC50 turned out to be 400 nM.

For the compound `C[C@@H]1O[C@H](CCc2c(F)cccc2NC(=O)[C@@H](N)C(c2ccc(F)cc2)c2ccc(F)cc2)CN[C@@H]1COC(=O)NCC(F)(F)F` [Example 50, 4-fluoro-N-(3-fluoro-2-{2-[(2R,5R,6S)-6-methyl-5-({[(2,2,2-trifluoroethyl)carbamoyl]oxy}methyl)morpholin-2-yl]ethyl}phenyl)-β-(4-fluorophenyl)-L-phenylalaninamide], the IC50 came to 30 nM.

Consider `C[C@H]1O[C@H](COc2c(F)cncc2NC(=O)[C@@H](N)C(c2ccc(F)cc2)c2ccc(F)cc2)CN[C@@H]1COC(=O)NCC(F)(F)F` [Example 51, 4-fluoro-N-(5-fluoro-4-{[(2S,5R,6R)-6-methyl-5-({[(2,2,2-trifluoroethyl)carbamoyl]oxy}methyl)morpholin-2-yl]methoxy}pyridin-3-yl)-β-(4-fluorophenyl)-L-phenylalaninamide], for which the IC50 is 77 nM. This IC50 is about 2.6-fold higher than that of the compound before.

In turn, `C[C@H]1O[C@H](COc2c(F)cncc2NC(=O)[C@@H](N)C(c2ccc(F)cc2)c2ccc(F)cc2)CN[C@@H]1COC(N)=O` [Example 52, N-[4-({(2S,5R,6R)-5-[(carbamoyloxy)methyl]-6-methylmorpholin-2-yl}methoxy)-5-fluoropyridin-3-yl]-4-fluoro-β-(4-fluorophenyl)-L-phenylalaninamide] had an IC50 of 52 nM. This IC50 and that of the compound before are within 1.5-fold of each other.

On to `C[C@@H]1O[C@H](CCc2c(F)cncc2NC(=O)[C@@H](N)C(c2ccc(F)cc2)c2ccc(F)cc2)CN[C@@H]1COC(N)=O` [Example 53, N-[4-(2-{(2R,5R,6S)-5-[(carbamoyloxy)methyl]-6-methylmorpholin-2-yl}ethyl)-5-fluoropyridin-3-yl]-4-fluoro-β-(4-fluorophenyl)-L-phenylalaninamide], for which the IC50 was found to be 25 nM.

The compound `C[C@@H]1O[C@H](CCc2c(F)cncc2NC(=O)[C@@H](N)C(c2ccc(F)cc2)c2ccc(F)cc2)CN[C@@H]1COC(=O)NCC(F)(F)F` [Example 54, 4-fluoro-N-(5-fluoro-4-{2-[(2R,5R,6S)-6-methyl-5-({[(2,2,2-trifluoroethyl)carbamoyl]oxy}methyl)morpholin-2-yl]ethyl}pyridin-3-yl)-β-(4-fluorophenyl)-L-phenylalaninamide] gave an IC50 of 30 nM.

`C[C@H]1O[C@H](CCc2c(F)cccc2NC(=O)[C@@H](N)C(c2ccc(F)cc2)c2ccc(F)cc2)CN[C@@H]1COC(=O)NCc1ccc(F)cc1` [Example 56, 4-fluoro-N-(3-fluoro-2-{2-[(2R,5R,6R)-5-({[(4-fluorobenzyl)carbamoyl]oxy}methyl)-6-methylmorpholin-2-yl]ethyl}phenyl)-β-(4-fluorophenyl)-L-phenylalaninamide] gave an IC50 of 7 nM.

On to `C[C@H]1O[C@H](CCc2c(F)cncc2NC(=O)[C@@H](N)C(c2ccc(F)cc2)c2ccc(F)cc2)CN[C@@H]1COC(=O)NCC(F)(F)F` [Example 57, 4-fluoro-N-(5-fluoro-4-{2-[(2R,5R,6R)-6-methyl-5-({[(2,2,2-trifluoroethyl)carbamoyl]oxy}methyl)morpholin-2-yl]ethyl}pyridin-3-yl)-β-(4-fluorophenyl)-L-phenylalaninamide], for which the IC50 was 59 nM.

Compound `CC(C)[C@@H](NC(=O)OC[C@H]1NC[C@@H](CCc2c(F)cccc2NC(=O)[C@@H](N)C(c2ccc(F)cc2)c2ccc(F)cc2)O[C@H]1C)c1ccc(F)cc1` [Example 58, 4-fluoro-N-[3-fluoro-2-(2-{(2R,5R,6S)-5-[({[(1R)-1-(4-fluorophenyl)-2-methylpropyl]carbamoyl}oxy)methyl]-6-methylmorpholin-2-yl}ethyl)phenyl]-β-(4-fluorophenyl)-L-phenylalaninamide] yielded an IC50 of 6.9 nM.

`C[C@@H]1O[C@H](CCc2c(F)cccc2NC(=O)[C@@H](N)C(c2ccc(F)cc2)c2ccc(F)cc2)CN[C@@H]1COC(=O)N[C@@H](c1ccc(F)cc1)C1CC1` [Example 59, N-[2-(2-{(2R,5R,6S)-5-[({[(R)-cyclopropyl(4-fluorophenyl)methyl]carbamoyl}oxy)methyl]-6-methylmorpholin-2-yl}ethyl)-3-fluorophenyl]-4-fluoro-β-(4-fluorophenyl)-L-phenylalaninamide]: half-maximal inhibition (IC50) was put at 17 nM.

`N[C@H](C(=O)Nc1cccc(F)c1OC[C@@H]1CN[C@@H]2c3ccccc3C[C@@H]2O1)C(c1ccccc1)c1ccccc1` [Example 60, N-{3-fluoro-2-[(2S,4aR,9aS)-2,3,4,4a,9,9a-hexahydroindeno [2,1-b][1,4]oxazin-2-ylmethoxy]phenyl}-β-phenyl-L-phenylalaninamide]: the IC50 worked out at 610 nM.

In turn, `C[C@@H]1O[C@H](CCc2c(F)cccc2NC(=O)[C@@H](N)C(c2ccc(F)cc2)c2ccc(F)cc2)CN[C@@H]1COC(=O)N[C@H](C)C(F)(F)F` [Example 61, 4-fluoro-N-[3-fluoro-2-(2-{(2R,5R,6S)-6-methyl-5-[({[(1R)-2,2,2-trifluoro-1-methylethyl]carbamoyl}oxy)methyl]morpholin-2-yl}ethyl)phenyl]-β-(4-fluorophenyl)-L-phenylalaninamide] gave an IC50 of 27 nM.

As for `O=C(CC(c1ccc(F)cc1)c1ccc(F)cc1)Nc1cccc(F)c1CC[C@@H]1CN[C@H](CO)[C@@H](COC(=O)NCC(F)(F)F)O1` [Example 62], the IC50 worked out at 170 nM.

For the compound `N[C@H](C(=O)Nc1cccc(F)c1CC[C@@H]1CN[C@H](CO)[C@@H](COC(=O)NCC(F)(F)F)O1)C(c1ccc(F)cc1)c1ccc(F)cc1` [Example 63, 4-fluoro-N-(3-fluoro-2-{2-[(2R,5R,6S)-5-(hydroxymethyl)-6-({[(2,2,2-trifluoroethyl)carbamoyl]oxy}methyl)morpholin-2-yl]ethyl}phenyl)-β-(4-fluorophenyl)-L-phenylalaninamide], the IC50 was found to be 130 nM.

The values are drawn from patent publication US9834526B2 (MERCK SHARP & DOHME CORP., priority 2013, dated 2017).
